Measurements: patent publication US6673372B1, “Crystalline Efavirenz” (Bristol-Myers Squibb Pharma Company, priority 1998, dated 2004)

Test: Relative stability of the crystalline forms of Efavirenz
Format: physicochemical
Procedure: Five Forms designated as Form 1, Form 2, Form 3, form 4, Form 5 have been identified. Each Form is distinguishable from the other forms by x-ray powder diffraction (XRD) and differential scanning calorimetry (DSC). Each form can be isolated in substantially pure form under the conditions described. Further, the forms may be interconverted by procedures taught herein.
It has a melting point of about 138° C. to about 140° C., which is the highest of the four forms. Due to its increased stability, it is commonly used for drug formulation. All other forms may be converted into Form 1 during drying at about 60° C. to about 110° C. Conversion and drying is preferably done in a dryer oven at about 70° C. to about 110° C. under reduced pressure. More preferred is about 75° C. to about 85° C. Form 5 is converted to Form 1 by heating to 95° C under reduced pressure. Forms 2 and 3 may also be converted into Form 1 using a hydrocarbon slurry at about 65° C. to about 75° C. Heptane is the most preferred hydrocarbon for this conversion. Form 4, however, may not convert to Form 1 under these conditions because it is soluble at about 70° C. Form 1 may be directly crystallized from heptane when the saturated solution is seeded at about 60° C. to about 75° C. and held at about this temperature until Form 1 starts crystallizing.
The thermal properties of Efavirenz were characterized with differential scanning calorimetry using a TA Instruments DSC 910, with data analysis via a TA Instruments Thermal Analyzer 2100. Samples were placed in sealed aluminum pans for analysis with an empty aluminum pan serving as the reference. Heating rates of 5° C. per minute or 10° C. per minute were employed over a temperature range of 25° C. to 200° C. The instrument was calibrated with a indium standard.

O=C1Nc2ccc(Cl)cc2[C@@](C#CC2CC2)(C(F)(F)F)O1 [Form 5, (S)-6-chloro-4-cyclopropylethynyl-4-trifluoromethyl-1,4-dihydro-2H-3,1-benzoxazin-2-one]
thermodynamic stability among the crystalline forms (below 40° C.): most thermodynamically stable crystalline form

O=C1Nc2ccc(Cl)cc2[C@@](C#CC2CC2)(C(F)(F)F)O1 [Form 1, (S)-6-chloro-4-cyclopropylethynyl-4-trifluoromethyl-1,4-dihydro-2H-3,1-benzoxazin-2-one]
thermodynamic stability among the crystalline forms (solid forms compared, highest melting point): most thermodynamically stable form

O=C1Nc2ccc(Cl)cc2[C@@](C#CC2CC2)(C(F)(F)F)O1 [Form 3, (S)-6-chloro-4-cyclopropylethynyl-4-trifluoromethyl-1,4-dihydro-2H-3,1-benzoxazin-2-one]
stability of the form in solution slurries (solution slurries of Efavirenz at room temperature): most stable form

O=C1Nc2ccc(Cl)cc2[C@@](C#CC2CC2)(C(F)(F)F)O1 [Form 2, (S)-6-chloro-4-cyclopropylethynyl-4-trifluoromethyl-1,4-dihydro-2H-3,1-benzoxazin-2-one]
stability (inferred from the melting point observed by differential scanning calorimetry): exceptional stability
